Key:
PRMT5 [1] = biological target: T1, PRMT5 (Homo sapiens, UniProt O14744); assay: PRMT5 biochemical IC50 assay with SAM as cofactor; conditions: PRMT5, SAM as cofactor; read-out: SAM IC50
T1 construct: purchased Viva (custom protein)

PRMT5 [2] = biological target: T1, PRMT5; assay: PRMT5 biochemical IC50 assay with MTA as cofactor; conditions: PRMT5, MTA as cofactor; read-out: MTA IC50
[3] = tested on: HAP1 MTAP-deleted cell line; assay: SDMA in-cell western assay, HAP1 MTAP-deleted; assay type: cell-based; conditions: for IC50: Homo sapiens, HAP1, SDMA in-cell western, HAP1 MTAP-deleted; for MTAP intact/deleted ratio: SDMA in-cell western
Procedure, shortened: (§1)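 MTAP-null vs endogenous-MTAP HAP1 isogenic cells; in-cell western SDMA readout; IC50 per line.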

[4] = tested on: HAP1 MTAP-intact cell line; assay: SDMA in-cell western assay, HAP1 MTAP-intact; assay type: cell-based; conditions: Homo sapiens, HAP1, SDMA in-cell western, HAP1 MTAP-intact; read-out: MTAP HAP1 intact IC50
Procedure, shortened: as §1

[5] = tested on: HAP1 MTAP-deleted cell line; assay: Viability assay, MTAP-deleted cell line; assay type: cell-based; conditions: Homo sapiens, read-out: HAP1 MTAP deleted viability
Excerpt: Table 1 additionally indicates IC50 values in a viability assay for the MTAP-deleted cell line (column 10), indicating the effect of treatment with compound on cell survival.

PRMT5 [6] = biological target: T1, PRMT5; assay: PRMT5 biochemical IC50 assay with no cofactor; conditions: PRMT5, no cofactor
Excerpt: Table 1 indicates IC50 values (μM) against PRMT5 for exemplary compounds in the presence of SAM as cofactor, with no cofactor, and with MTA as cofactor, respectively (columns 4-6). […] Ki values can be calculated from the IC50 values as described in the Examples section. As detailed in the Examples section, for the assay performed in the presence of SAM, IC50=Ki×1.5 (Ki=IC50/1.5).

[7] = read-out: HAP 1 MTAP deleted IC50
[8] = IC50 ratio HAP1 MTAP-intact / HAP1 MTAP-deleted
[9] = HAP1, viability IC50, MTAP-deleted cell line
[10] = HAP1, viability assay, MTAP-deleted cell line
[11] = read-out: No Cofactor/ rel IC50
[12] = read-out: HAP1 MTAP deleted IC50
[13] = HAP1, viability assay, HAP1 MTAP-deleted
[14] = IC50 ratio HAP1 MTAP-intact vs HAP1 MTAP-deleted

T1 sequence (O14744 whole entry): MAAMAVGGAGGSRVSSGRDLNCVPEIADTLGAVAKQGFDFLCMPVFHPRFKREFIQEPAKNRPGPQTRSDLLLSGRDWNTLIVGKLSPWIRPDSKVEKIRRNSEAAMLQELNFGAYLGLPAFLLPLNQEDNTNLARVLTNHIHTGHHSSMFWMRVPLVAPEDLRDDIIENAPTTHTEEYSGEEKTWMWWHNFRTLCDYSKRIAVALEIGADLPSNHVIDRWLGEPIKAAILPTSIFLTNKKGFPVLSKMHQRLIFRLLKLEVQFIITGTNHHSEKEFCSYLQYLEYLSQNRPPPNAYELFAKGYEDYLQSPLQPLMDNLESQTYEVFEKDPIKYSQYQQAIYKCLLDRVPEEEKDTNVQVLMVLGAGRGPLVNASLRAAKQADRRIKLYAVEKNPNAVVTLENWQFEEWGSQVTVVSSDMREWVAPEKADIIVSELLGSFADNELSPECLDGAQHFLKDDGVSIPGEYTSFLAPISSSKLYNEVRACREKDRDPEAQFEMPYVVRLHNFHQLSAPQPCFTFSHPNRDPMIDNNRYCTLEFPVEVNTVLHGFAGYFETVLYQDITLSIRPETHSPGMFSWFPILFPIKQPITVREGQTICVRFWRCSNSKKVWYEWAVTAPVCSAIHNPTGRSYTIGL
T1 sequence (Q9BQA1 whole entry partner): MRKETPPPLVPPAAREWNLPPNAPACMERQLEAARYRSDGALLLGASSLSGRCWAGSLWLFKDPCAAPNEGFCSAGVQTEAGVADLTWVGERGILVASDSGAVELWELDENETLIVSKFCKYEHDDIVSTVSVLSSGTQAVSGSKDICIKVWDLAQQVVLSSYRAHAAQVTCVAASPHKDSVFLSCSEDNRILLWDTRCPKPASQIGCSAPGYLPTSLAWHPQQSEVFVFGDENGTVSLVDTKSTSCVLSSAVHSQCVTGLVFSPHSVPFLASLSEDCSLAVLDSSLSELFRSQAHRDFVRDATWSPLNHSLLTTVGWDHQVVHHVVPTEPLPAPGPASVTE

SMILES | IC50 (PRMT5 [1]) | IC50 (PRMT5 [2]) | IC50 [3, 7] | IC50 [4] | IC50 (PRMT5 [6]; read-out: No Cofactor/rel IC50) | IC50 (PRMT5 [6]; [11]) | IC50 [3, 12] | MTAP intact/deleted ratio [3, 8] | IC50 [5, 9] | IC50 [5, 10] | IC50 [5, 13] | MTAP intact/deleted ratio [3, 14] | IC50 ([5]; HAP1, viability, HAP1 MTAP-deleted cell line)
C[C@H]1CC[C@H](c2ccc(Cl)cc2)N(C(=O)C(=O)Nc2cncc(C(N)=O)c2)C1 (single isomer, unassigned) [Compound 569] | > 500 nM | > 500 nM | > 1000 nM | > 1000 nM | > 500 nM | – | – | C (an IC50 ratio of less than 3 fold) | > 10000 nM | – | – | – | –
CC[C@@H]1CC[C@@H](c2ccccc2)N(C(=O)C(=O)Nc2cncc(C)c2)C1 (single isomer, unassigned) [Compound 17] | > 500 nM | 50 to 500 nM | > 1000 nM | > 1000 nM | – | > 500 nM | – | B (an IC50 ratio greater than or equal to 3 fold but lower than 10 fold) | – | > 10000 nM | – | – | –
Cc1cc(NC(=O)C(=O)N2C[C@H]3CC[C@H](C3)[C@@H]2c2ccccc2)cnc1N (single isomer, unassigned) [Compound 63] | > 500 nM | > 500 nM | > 1000 nM | > 1000 nM | – | > 500 nM | – | C (an IC50 ratio of less than 3 fold) | – | > 10000 nM | – | – | –
C[C@@H]1CC[C@@H](c2ccc(-n3cccn3)cc2)N(C(=O)C(=O)Nc2cncc(C(N)=O)c2)C1 (racemic) [Compound 256, rac-5-{2-[(2R,5S)-5-Methyl-2-[4-(1H-pyrazol-1-yl)phenyl]piperidin-1-yl]-2-oxoacetamido}pyridine-3-carboxamide] | 50 to 500 nM | < 50 nM | – | > 1000 nM | 50 to 500 nM | – | < 100 nM | A (an IC50 ratio greater than or equal to 10 fold) | – | 1000 to 10000 nM | – | – | –
CCC(C)C1CCCCN1C(=O)C(=O)Nc1cnc(N)c(C)c1 (stereo not shown) [Compound 232, N-(6-amino-5-methyl-3-pyridyl)-2-oxo-2-(2-sec-butyl-1-piperidyl)acetamide] | > 500 nM | 50 to 500 nM | – | > 1000 nM | > 500 nM | – | > 1000 nM | B (an IC50 ratio greater than or equal to 3 fold but lower than 10 fold) | – | > 10000 nM | – | – | –
Cc1cc(NC(=O)C(=O)N2C[C@H](C)CC[C@H]2C2CC3(CCC3)C2)cnc1N (racemic) [Compound 692, N-(6-amino-5-methylpyridin-3-yl)-2-(5-methyl-2-(spiro[3.3]heptan-2-yl)piperidin-1-yl)-2-oxoacetamide] | > 500 nM | 50 to 500 nM | > 1000 nM | > 1000 nM | > 500 nM | – | – | C (an IC50 ratio of less than 3 fold) | > 10000 nM | – | – | – | –
COc1ncc(NC(=O)C(=O)N2C[C@H](C)CC[C@H]2c2ccc(C)nc2)cc1C(N)=O (single isomer, unassigned) [Compound 754] | 50 to 500 nM | < 50 nM | – | > 1000 nM | 50 to 500 nM | – | < 100 nM | A (an IC50 ratio greater than or equal to 10 fold) | – | – | 1000 to 10000 nM | – | –
Cc1cncc(NC(=O)C(=O)N2CCCCC2c2ccccc2)c1N (stereo not shown) [Compound 184, N-(4-amino-5-methylpyridin-3-yl)-2-oxo-2-(2-phenylpiperidin-1-yl)acetamide] | > 500 nM | 50 to 500 nM | – | > 1000 nM | > 500 nM | – | > 1000 nM | C (an IC50 ratio of less than 3 fold) | – | > 10000 nM | – | – | –
C[C@H]1CC[C@H](C2CCC(F)(F)CC2)N(C(=O)C(=O)Nc2cncc(C(N)=O)c2)C1 (single isomer, unassigned) [Compound 320] | 50 to 500 nM | 50 to 500 nM | – | > 1000 nM | > 500 nM | – | > 1000 nM | B (an IC50 ratio greater than or equal to 3 fold but lower than 10 fold) | – | > 10000 nM | – | – | –
C[C@H]1CC[C@H](c2cc(Cl)cc(C(F)(F)F)c2)N(C(=O)C(=O)Nc2cncc(C(N)=O)c2)C1 (single isomer, unassigned) [Compound 646] | < 50 nM | < 50 nM | 100 to 1000 nM | > 1000 nM | 50 to 500 nM | – | – | A (an IC50 ratio greater than or equal to 10 fold) | 1000 to 10000 nM | – | – | – | –
CC(=O)Nc1cccc([C@@H]2CC[C@@H](C)CN2C(=O)C(=O)Nc2cncc(C)c2)c1 (racemic) [Compound 110, 2-[(2S,5R)-2-(3-acetamidophenyl)-5-methyl-1-piperidyl]-N-(5-methyl-3-pyridyl)-2-oxo-acetamide] | 50 to 500 nM | 50 to 500 nM | > 1000 nM | > 1000 nM | – | 50 to 500 nM | – | B (an IC50 ratio greater than or equal to 3 fold but lower than 10 fold) | – | > 10000 nM | – | – | –
C[C@@H]1CC[C@@H](c2ccc3c(c2)CCCN3)N(C(=O)C(=O)Nc2cncc(C(N)=O)c2)C1 (single isomer, unassigned) [Compound 432] | 50 to 500 nM | < 50 nM | – | > 1000 nM | 50 to 500 nM | – | < 100 nM | A (an IC50 ratio greater than or equal to 10 fold) | – | 1000 to 10000 nM | – | – | –

The next lines start with results.

IC50 (PRMT5 [1]) | IC50 (PRMT5 [2]) | IC50 [3, 7] | IC50 [4] | IC50 (PRMT5 [6]; read-out: No Cofactor/rel IC50) | IC50 (PRMT5 [6]; [11]) | IC50 [3, 12] | SMILES | MTAP intact/deleted ratio [3, 8] | IC50 [5, 9] | IC50 [5, 10] | IC50 [5, 13] | MTAP intact/deleted ratio [3, 14] | IC50 ([5]; HAP1, viability, HAP1 MTAP-deleted cell line)
50 to 500 nM | < 50 nM | < 100 nM | > 1000 nM | 50 to 500 nM | – | – | COc1ncc(NC(=O)C(=O)N2C[C@@H](C)CC[C@@H]2c2cc(Cl)cc(Cl)c2)cc1C(N)=O (single isomer, unassigned) [Compound 945] | A (an IC50 ratio greater than or equal to 10 fold) | – | 1000 to 10000 nM | – | – | –
50 to 500 nM | < 50 nM | – | 100 to 1000 nM | < 50 nM | – | < 100 nM | CCc1cc(NC(=O)C(=O)N2C[C@H](C)CC[C@H]2c2ccc(NC)nc2)cnc1N (single isomer, unassigned) [Compound 865] | A (an IC50 ratio greater than or equal to 10 fold) | – | – | < 1000 nM | – | –
< 50 nM | < 50 nM | – | 100 to 1000 nM | < 50 nM | – | < 100 nM | Cc1cc(NC(=O)C(=O)N2C[C@@H](C)CC[C@@H]2c2ccc3sc(C4CN(C)C4)nc3c2)cnc1C [Compound 1123, N-(5,6-dimethylpyridin-3-yl)-2-((2R,5S)-5-methyl-2-(2-(1-methylazetidin-3-yl)benzo[d]thiazol-5-yl)piperidin-1-yl)-2-oxoacetamide] | – | – | < 1000 nM | – | A (an IC50 ratio greater than or equal to 10 fold) | –
> 500 nM | > 500 nM | > 1000 nM | > 1000 nM | > 500 nM | – | – | C[C@@H]1CC[C@@H](c2cn[nH]c2)N(C(=O)C(=O)Nc2cncc(C(N)=O)c2)C1 (single isomer, unassigned) [Compound 970] | C (an IC50 ratio of less than 3 fold) | – | > 10000 nM | – | – | –
50 to 500 nM | < 50 nM | – | 100 to 1000 nM | 50 to 500 nM | – | < 100 nM | CCc1cc(NC(=O)C(=O)N2C[C@@H](C)[C@H](OC)C[C@@H]2c2cccc(OCCN(C)C)c2)cnc1N (racemic) [Compound 1172, N-(6-amino-5-ethyl-3-pyridyl)-2-oxo-2-[rac-(2R,4R,5R)-2-[3-[2-(dimethylamino)ethoxy]phenyl]-4-methoxy-5-methyl-1-piperidyl]acetamide] | – | – | < 1000 nM | – | A (an IC50 ratio greater than or equal to 10 fold) | –
50 to 500 nM | < 50 nM | 100 to 1000 nM | > 1000 nM | 50 to 500 nM | – | – | C[C@H]1CC[C@H](c2ccc(F)cc2)N(C(=O)C(=O)Nc2cnc(N)c(OC(F)F)c2)C1 [Compound 1026, N-[6-amino-5-(difluoromethoxy)-3-pyridyl]-2-[(2R,5S)-2-(4-fluorophenyl)-5-methyl-1-piperidyl]-2-oxo-acetamide] | A (an IC50 ratio greater than or equal to 10 fold) | – | 1000 to 10000 nM | – | – | –
50 to 500 nM | < 50 nM | < 100 nM | 100 to 1000 nM | – | < 50 nM | – | C[C@@H]1CC[C@@H](c2ccc3cn(C)nc3c2)N(C(=O)C(=O)Nc2cnc(N)c(C3CC3)c2)C1 (single isomer, unassigned) [Compound 1403] | A (an IC50 ratio greater than or equal to 10 fold) | – | – | – | – | < 1000 nM

From patent publication US11999727B2 (Tango Therapeutics, Inc., priority 2020, dated 2024)
